# Counter-ions that a name gives are not always drawn.
# What was measured:
# Assay type in all cases: cell-based
# MYB mRNA [1] = test: Splicing RT-qPCR assay (THP), Table 2A; conditions: Table 2A (THP); for AC50: AJ mRNA increase, read-out: MYB AJ (increase in alternative junction mRNA, AC50); for IC50: CJ mRNA decrease, read-out: MYB CJ (decrease in canonical junction mRNA, IC50)
# HTT mRNA [2] = test: Splicing RT-qPCR assay (THP), Table 2A; conditions: Table 2A (THP); for AC50: AJ mRNA increase, read-out: HTT AJ (increase in alternative junction mRNA, AC50); for IC50: CJ mRNA decrease, read-out: HTT CJ (decrease in canonical junction mRNA, IC50)
# [3] = system: SH-SY5Y (human neuroblastoma) cells; test: Cell viability, Cell Titer Glo 2.0 assay; conditions: read-out: Viability SHSY5Y.3 GI50
# Method: Compounds described herein were screened for toxicity in K562 (human chronic myelogenous leukemia) and SH-SY5Y (human neuroblastoma) cells using a Cell Titer Glo 2.0 assay.
# • Promega CellTiter-Glo® 2.0 Cell Viability Assay (cat #G9241) • Corning 384-well TC-treated microplates (cat #3570)
# Cells were plated at 500 cells/well (K562 cells) in 45 μL of IMDM supplemented with 10% FBS in a 384-well opaque plate. Wells containing only medium were used as a blank control. Test compounds (e.g., compounds of Formula (I) or (II) were first serially diluted in DMSO then diluted 1:100 with IMDM+10% FBS. The final concentration of DMSO was 0.1% in each well. The cells were incubated for 72 hours at 37° C. and 5% CO2 before assaying with Cell Titer Glo 2.0 reagent.
# HTT mRNA [4] = test: Gene panel canonical junction qPCR assay, decrease in CJ mRNA, Table 3; conditions: decrease in canonical junction (CJ) mRNA, gene panel qPCR, Table 3
# Method: (§1) Compounds described herein were used to modulate RNA transcript abundance in cells. The expression of a target mRNA was measured by detecting the formation of an exon-exon junction in the canonical transcript (CJ). A compound mediated exon-inclusion event was detected by observing an increase in formation of a new junction with an alternative exon (AJ). Real-time qPCR assays were used to detect these splicing switches and interrogate the potency of various compounds towards different target genes. A high-throughput real time quantitative PCR (RT-qPCR) assay was developed to measure these two isoforms of the mRNA (CJ and AJ) for exemplary genes, such as HTT, SMN2, and MYB, together with a control housekeeping gene, GAPDH or GUSB or PPIA, used for normalization. Briefly, the A673 or K562 cell line was treated with various compounds described herein (e.g., compounds of Formula (I)). After treatment, the levels of the HTT, MYB, or SMN2 mRNA targets were determined from each sample of cell lysate by cDNA synthesis followed by qPCR.
# (§2) The A673 cell line was cultured in DMEM with 10% FBS. Cells were diluted with full growth media and plated in a 96-well plate (15,000 cells in 100 ul media per well). The plate was incubated at 37° C. with 5% CO2 for 24 hours to allow cells to adhere. An 11-point 3-fold serial dilution of the compounds was made in DMSO then diluted in media in an intermediate plate. Compounds were transferred from the intermediate plate to the cell plate with the top dose at a final concentration of 10 uM in the well. Final DMSO concentration was kept at or below 0.25%. The cell plate was returned to the incubator at 37° C. with 5% CO2 for an additional 24 hours.
# (§3) The K562 cell line was cultured in IMDM with 10% FBS. For K562, cells were diluted with full growth media and plated in either a 96-well plate (50,000 cells in 50 uL media per well) or a 384-well plate (8,000-40,000 cells in 45 uL media per well). An 11-point 3-fold serial dilution of the compounds were made in DMSO then diluted in media in an intermediate plate. Compound was transferred from the intermediate plate to the cell plate with the top dose at a final concentration of 10 uM in the well. Final DMSO concentration was kept at or below 0.25%. Final volume was 100 uL for 96-well plate and 50 uL for 384-well plate. The cell plate was then placed in an incubator at 37° C. with 5% CO2 for 24 hours.
# (§4) The data analysis was performed by first determining the ΔCt vs the housekeeper gene. This ΔCt was then normalized against the DMSO control (ΔΔCt) and converted to RQ (relative quantification) using the 2^(−ΔΔCt) equation. The RQ were then converted to a percentage response by arbitrarily setting an assay window of 3.5 and 4.0 ΔCt for HTT-CJ and MYB-CJ respectively and an assay window of 9 and 3 ΔCt for HTT-AJ and MYB-AJ in 96 well format (50,000 K562 cells/well and 15,000 A673 cells per well) and an assay window of 3 and 4 ΔCt for HTT-CJ and MYB-CJ respectively and an assay window of 5 and 3 ΔCt for HTT-AJ and MYB-AJ respectively in 384 well format (8,000 K562 cells/well example). […] The percentage response was then fitted to the 4 parametric logistic equation to evaluate the concentration dependence of compound treatment. The increase in AJ mRNA is reported as AC50 (compound concentration having 50% response in AJ increase) while the decrease in CJ mRNA levels is reported as IC50 (compound concentration having 50% response in CJ decrease).
# (§5) Additional studies were carried out for a larger panel of genes using the protocol provided above. The junction between flanking upstream and downstream exons was used to design canonical junction qPCR assays. At least one of the forward primer, reverse primer or the CY5-labeled 5′ nuclease probe (with 3′ quencher such as ZEN/Iowa Black FQ) was designed to overlap with the exon junction to capture the CJ mRNA transcript. […]
# MYB mRNA [5] = test: as above; conditions: decrease in canonical junction (CJ) mRNA, gene panel qPCR, Table 3
# Method: as §1, §2, §3, §4, §5
Structure (SMILES),AC50 (MYB mRNA [1]) [nM],IC50 (MYB mRNA [1]) [nM],AC50 (HTT mRNA [2]) [µM],IC50 (HTT mRNA [2]) [µM],GI50 [3] [nM],IC50 (HTT mRNA [4]) [µM],IC50 (MYB mRNA [5]) [nM]
"Cc1cn2cc(NC(=O)c3c(F)cc(N4CCC(NC5CC5)CC4)c4cn(C)nc34)nc2c(C)n1 [Compound 334, 4-(4-(cyclopropylamino)-piperidin-1-yl)-N-(6,8-dimethyl-imidazo[1,2-a]pyrazin-2-y1)-6-fluoro-2-methyl-2H-indazole-7-carboxamide bis(2,2,2-trifluoroacetate)]",< 100,100 to 1000,1 to 10,> 10,100 to 1000,> 10,100 to 1000
"CCNC1CCN(c2cc(Cl)c(C(=O)Nc3cn4cc(C)nc4c(F)c3OC)c3nn(C)cc23)CC1 [Compound 335, 6-chloro-4-[4-(ethylamino)-1-piperidyl]-N-(8-fluoro-7-methoxy-2-methyl-imidazo[1,2-a]pyridin-6-yl)-2-methyl-indazole-7-carboxamide]",< 100,< 100,< 0.1,< 0.1,< 100,< 0.1,< 100
"CCNC1CCN(c2cc(F)c(C(=O)Nc3cn4cc(CC5CC5)nc4c(F)c3OC)c3nn(C)cc23)CC1 [Compound 336, N-[2-(cyclopropyl-methyl)-8-fluoro-7-methoxyimidazo-[1,2-a]pyridin-6-yl]-4-[4-(ethylamino)-1-piperidyl]-6-fluoro-2-methyl-indazole-7-carboxamide]",> 10000,> 10000,> 10,> 10,> 10000,> 10,> 10000
"CCNC1CCN(c2ccc(C(=O)Nc3cn4cc(CO)nc(C)c4n3)c3nn(C)cc23)CC1 [Compound 337, 4-(4-(ethylamino)piperidin-1-yl)-N-(6-(hydroxymethyl)-8-methylimidazo[1,2-a]pyrazin-2-yl)-2-methyl-2H-indazole-7-carboxamide 2,2,2-trifluoroacetate]",1000 to 10000,1000 to 10000,> 10,> 10,> 10000,> 10,1000 to 10000
"CCNC1CCN(c2ccc(C(=O)Nc3cc(Cc4ccccc4)c4nc(C)cn4c3)c3nn(C)cc23)CC1 [Compound 338, N-(8-benzyl-2-methylimidazo-[1,2-a]pyridin-6-yl)-4-[4-(ethylamino)-1-piperidyl]-2-methyl-indazole-7-carboxamide]",< 100,< 100,1 to 10,1 to 10,100 to 1000,1 to 10,< 100
"CCNC1CCN(c2ccc(C(=O)Nc3cc(CC(=O)O)c4nc(C)cn4c3)c3nn(C)cc23)CC1 [Compound 339, 2-[6-[[4-[4-(ethylamino)-1-piperidyl]-2-methyl-indazole-7-carbonyl]amino]-2-methyl-imidazo[1,2-a]-pyridin-8-yl]acetic acid]",100 to 1000,100 to 1000,0.1 to 1,0.1 to 1,100 to 1000,0.1 to 1,100 to 1000
"CCNC1CCN(c2ccc(C(=O)Nc3cc(CC(N)=O)c4nc(C)cn4c3)c3nn(C)cc23)CC1 [Compound 340, N-[8-(2-amino-2-oxo-ethyl)-2-methyl-imidazo[1,2-a]pyridin-6-yl]-4-[4-(ethylamino)-1-piperidyl]-2-methyl-indazole-7-carboxamide]",> 10000,> 10000,> 10,> 10,> 10000,> 10,> 10000
"CCNC1CCN(c2ccc(C(=O)Nc3cc(CC(=O)NC)c4nc(C)cn4c3)c3nn(C)cc23)CC1 [Compound 341, 4-(4-(ethylamino)piperidin-1-yl)-2-methyl-N-(2-methyl-8-(2-(methylamino)-2-oxoethyl)imidazo[1,2-a]-pyridin-6-yl)-2H-indazole-7-carboxamide bis(2,2,2-trifluoroacetate)]",1000 to 10000,> 10000,> 10,1 to 10,> 10000,1 to 10,> 10000
"CNC1CCN(c2cc(F)c(C(=O)Nc3cn4cc(C)nc(C)c4n3)c3nn(C)cc23)CC1 [Compound 342, N-(6,8-dimethylimidazo[1,2-a]pyrazin-2-yl)-6-fluoro-2-methyl-4-[4-(methylamino)-1-piperidyl]-indazole-7-carbox-amide]",< 100,< 100,1 to 10,1 to 10,1000 to 10000,1 to 10,< 100
"CCNC1CCN(c2cc(F)c(C(=O)Nc3cn4cc(C)nc4c(F)c3OCC)c3nn(C)cc23)CC1 [Compound 343, N-(7-ethoxy-8-fluoro-2-methylimidazo [1,2-a]pyridin-6-yl)-4-(4-(ethylamino)piperidin-1-yl)-6-fluoro-2-methyl-2H-indazole-7-carboxamide hydrochloride]",< 100,< 100,< 0.1,< 0.1,< 100,< 0.1,< 100
"CCNC1CCN(c2cc(F)c(C(=O)Nc3cc4c(C)nc(C)cn4c3)c3nn(C)cc23)CC1 [Compound 344, N-(1,3-dimethylpyrrolo[1,2-a]-pyrazin-7-yl)-4-[4-(ethylamino)-1-piperidyl]-6-fluoro-2-methyl-indazole-7-carboxamide]",100 to 1000,100 to 1000,> 10,> 10,1000 to 10000,> 10,100 to 1000
"CCNC1CCN(c2ccc(C(=O)Nc3cc4c(C)nc(C)cn4c3)c3nn(C)cc23)CC1 [Compound 345, N-(1,3-dimethylpyrrolo[1,2-a]pyrazin-7-yl)-4-[4-(ethylamino)-1-piperidyl]-2-methyl-indazole-7-carboxamide]",> 10000,1000 to 10000,> 10,> 10,1000 to 10000,> 10,1000 to 10000
"CCNC1CCN(c2cc(F)c(C(=O)Nc3cn4cc(C5CC5)nc(C)c4n3)c3nn(C)cc23)CC1 [Compound 346, N-(6-cyclopropyl-8-methyl-imidazo[1,2-a]pyrazin-2-yl)-4-(4-(ethylamino)-piperidin-1-yl)-6-fluoro-2-methyl-2H-indazole-7-carboxamide bis(2,2,2-trifluoroacetate)]",> 10000,> 10000,> 10,> 10,1000 to 10000,> 10,> 10000

# Reference: patent US20260285853A1, “COMPOUNDS AND METHODS FOR MODULATING SPLICING” (REMIX THERAPEUTICS INC., priority 2023, published 2026)
